Test results reported in article PMC11219871, “Epigenetic-based differentiation therapy for Acute Myeloid Leukemia” (Nature Communications, 2024).
Read-outs that look alike come from different tables or passages of the source.

Tests used:
ML-2 = assay: RNA-seq; assay type: cell-based, human; details: for ABI1 Log2FC / CBFB Log2FC / CCR2 Log2FC / CD44 Log2FC / CDK6 Log2FC / CEBPB Log2FC / CSF3R Log2FC / CTNNBIP1 Log2FC / ELANE Log2FC / EP300 Log2FC / FLI1 Log2FC / FUT4 Log2FC / GATA2 Log2FC / HCLS1 Log2FC / ITGA4 Log2FC / ITGAM Log2FC / ITGB1 Log2FC / ITGB2 Log2FC / JUN Log2FC / MPO Log2FC / MYC Log2FC / NFE2 Log2FC / PIR Log2FC / RUNX1 Log2FC / SOX4 Log2FC / SPI1 Log2FC / TESC Log2FC / TRIB1 Log2FC / ZBTB46 Log2FC / ZFP36L1 Log2FC: ML-2, RNA-Seq
Experimental: (§1) Transcriptomic analyses were performed following low-input 3′ end RNA sequencing approximation for characterization of transcriptional changes in ML-2 and HL-60 samples treated with CM-444 and CM-1758.
(§2) Low-input 3′ end RNA-seq was performed as previously described[53],[54] with minor modifications. Briefly, RNA from 0.1 ×10^6 cells from each experimental condition was purified using a Dynabeads mRNA DIRECT Purification Kit (Thermo Fisher Scientific). For barcoded cDNA generation, polyadenylated RNA was retrotranscribed using an Affinity Script cDNA Synthesis Kit (Agilent Technologies), and barcoded primers also harboring T7 promoter and a partial Read2 sequence for illumine sequencing (CGATTGAGGCCGGTAATACGACTCACTATAGGGGGCGACGTGTGCTCTTCCGATCTXXXXXXNNNNTTTTTTTTTTTTTTTTTTTT, where XXXXXX is the cell barcode and NNN is a unique molecular identifier or UMI, which represents the same initial RNA molecule for future quantification). At this point, the samples were pooled (≤6 samples per pool) at equimolar ratios assessed by q-PCR.
(§3) The samples were then treated with Exonuclease I (Thermo Fisher Scientific following a 1.2x positive SPRI-selection. Second-strand cDNA synthesis was then performed using a NEBNext Ultra II Directional RNA Second-Strand Synthesis Module (New England Biolabs) for 2 h at 16 °C, followed by a 1.4x positive solid-phase reverse immobilization (SPRI) cleanup. The samples were linearly amplified by T7 in vitro transcription using a T7 RNA Polymerase (New England Biolabs) for 16 h at 37 °C. After DNAse treatment (TURBO DNAse I, Thermo Fisher Scientific) for 15 min at 37 °C to remove dsDNA, samples were cleaned with a positive 1.2x SPRI-selection. RNA size, quality, and concentration were determined by analysis with a Qubit Fluorometer (Termo Fisher Scientific) and TapeStation (Agilent 4200 TapeSation System, Agilent Technologies). If necessary, RNA was fragmented in 200- to 300-bp fragments using Zn2+divalent cations followed by a 2x positive SPRI cleanup. Fragmented RNA was dephosphorylated using FastAP Thermosensitive Alkaline Phosphatase (Thermo Fisher Scientific) for 10 min at 37 °C to enhance RNA ligation yield. In this step, a partial Read1 ([…]) sequence for illumine sequencing was ligated to the 3′ end of the fragmented RNA using T4 RNA Ligase I (New England Biolabs). After a 1.5x positive SPRI cleanup, the RNA product was retrotranscribed using an Affinity Script cDNA Synthesis Kit (Agilent Technologies) and a specific retrotranscription primer ([…]). The library was then purified by 1.5x positive SPRI cleanup, and the yield of the previous steps was determined by q-PCR. Finally, PCR using KAPA HiFi HotStar Ready Mix (Kapa Biosystems) was performed for second-strand cDNA synthesis, illumine primers addition (Read1-P5: […] and Read2-P7: […]) and library amplification using the recommended cycle numbers to minimize over-amplification. The product was purified by a 0.7x positive SPRI cleanup. The quality of the final library was determined by q-PCR (based on the threshold cycle, or Ct, obtained for GAPDH (Fw: […], Rv: […]) or GUSB (Fw: […], Rv: […]) housekeeping genes calibrated per individual set of samples, Qubit Fluorometer (Thermo Fisher Scientific) and TapeStation (Agilent 4200 TapeStation System, Agilent Technologies). All libraries were pooled at equimolar ratios and sequenced on a NextSeq500 (Illumina) using 60 bp single-end reads at a minimum sequence depth of 10 million reads per sample.
(§4) Raw reads were demultiplexed using bcl2fastq2 Conversion Software v2.19 (Illumina) to convert base call (BCL) files into FastQ files. The quality control of FastQ files was performed using FastQC (Bioinformatics Babraham Institute). Sequencing reads were aligned to hg19 human reference using Bowtie 2 (Johns Hopkins University) and quantified using quant3p script (github.com/ctlab/quant3p). […]

HL-60 = assay: RNA-seq; assay type: cell-based, human; details: for ABI1 Log2FC / CBFB Log2FC / CCR2 Log2FC / CD44 Log2FC / CDK6 Log2FC / CEBPB Log2FC / CSF3R Log2FC / CTNNBIP1 Log2FC / ELANE Log2FC / EP300 Log2FC / FLI1 Log2FC / FUT4 Log2FC / GATA2 Log2FC / HCLS1 Log2FC / ITGA4 Log2FC / ITGAM Log2FC / ITGB1 Log2FC / ITGB2 Log2FC / JUN Log2FC / MPO Log2FC / MYC Log2FC / NFE2 Log2FC / PIR Log2FC / RUNX1 Log2FC / SOX4 Log2FC / SPI1 Log2FC / TESC Log2FC / TRIB1 Log2FC / ZBTB46 Log2FC / ZFP36L1 Log2FC: HL-60, RNA-Seq
Experimental: as §1, §2, §3, §4

[1] = ML-2, 25% GI50, 12 h, log2FC +/-1
[2] = HL-60, 25% GI50, 12 h, log2FC +/-1

## COc1cc2nc(-c3ccc(C)o3)cc(NCC3CCN(c4ncc(C(=O)NO)cn4)CC3)c2cc1OC [CM-444, 2-[4-[[[6,7-dimethoxy-2-(5-methyl-2-furyl)-4-quinolyl]amino]methyl]-1-piperidyl]pyrimidine-5-carbohydroxamic acid]
ML-2
  deregulated genes (RNA-seq): 558
  down-regulated genes (RNA-seq): 88
  up-regulated genes (RNA-seq): 470
  ABI1 Log2FC: 0.61
  CBFB Log2FC: 0.4078
  CCR2 Log2FC: 0.3405
  CD44 Log2FC: 0.2468
  CDK6 Log2FC: -0.3705
  CEBPB Log2FC: 0.009186
  CSF3R Log2FC: -0.2226
  CTNNBIP1 Log2FC: 0.1064
  ELANE Log2FC: -0.8925
  EP300 Log2FC: 0.282
  FLI1 Log2FC: 0.279
  FUT4 Log2FC: -0.09706
  GATA2 Log2FC: 1.078
  HCLS1 Log2FC: 0.03361
  ITGA4 Log2FC: -0.1245
  ITGAM Log2FC: 1.391
  ITGB1 Log2FC: 0.4551
  ITGB2 Log2FC: -0.139
  JUN Log2FC: 1.102
  MPO Log2FC: -1.303
  MYC Log2FC: -0.4866
  NFE2 Log2FC: 0.3613
  PIR Log2FC: 1.319
  RUNX1 Log2FC: -0.08636
  SOX4 Log2FC: 0.2683
  SPI1 Log2FC: 0.1755
  TESC Log2FC: 0.4308
  TRIB1 Log2FC: -0.2715
  ZBTB46 Log2FC: -0.2139
  ZFP36L1 Log2FC: 2.504
ML-2; [1]
  deregulated genes (RNA-seq): 460
  down-regulated genes (RNA-seq): 44
  up-regulated genes (RNA-seq): 416
HL-60
  deregulated genes (RNA-seq): 227
  down-regulated genes (RNA-seq): 39
  up-regulated genes (RNA-seq): 188
  ABI1 Log2FC: -0.1754
  CBFB Log2FC: -0.0298
  CCR2 Log2FC: 0.967
  CD44 Log2FC: -0.2341
  CDK6 Log2FC: 0.2817
  CEBPB Log2FC: -0.1067
  CSF3R Log2FC: 0.0126
  CTNNBIP1 Log2FC: 0.7431
  ELANE Log2FC: -2.007
  EP300 Log2FC: -0.2558
  FLI1 Log2FC: -0.04836
  FUT4 Log2FC: -0.2495
  GATA2 Log2FC: -0.2076
  HCLS1 Log2FC: -0.2476
  ITGA4 Log2FC: -0.309
  ITGAM Log2FC: 0.9545
  ITGB1 Log2FC: 0.4474
  ITGB2 Log2FC: -0.1397
  JUN Log2FC: 0.8212
  MPO Log2FC: -0.2249
  MYC Log2FC: -0.2011
  NFE2 Log2FC: -0.621
  PIR Log2FC: 0.9082
  RUNX1 Log2FC: -0.1954
  SOX4 Log2FC: 0.2596
  SPI1 Log2FC: -0.5566
  TESC Log2FC: 0.05581
  TRIB1 Log2FC: 0.02008
  ZBTB46 Log2FC: 0.2361
  ZFP36L1 Log2FC: 0.9631
HL-60; [2]
  deregulated genes (RNA-seq): 136
  down-regulated genes (RNA-seq): 3
  up-regulated genes (RNA-seq): 133

## COc1cc2nc(-c3cc(C)oc3C)cc(NCC3CCN(c4ncc(C(=O)NO)cn4)CC3)c2cc1OC [CM-1758, 2-[4-[[[2-(2,5-dimethyl-3-furyl)-6,7-dimethoxy-4-quinolyl]amino]methyl] -1-piperidyl]pyrimidine-5-carbohydroxamic acid]
ML-2
  deregulated genes (RNA-seq): 3750
  down-regulated genes (RNA-seq): 2024
  up-regulated genes (RNA-seq): 1726
  ABI1 Log2FC: 1.097
  CBFB Log2FC: 0.03944
  CCR2 Log2FC: -0.7456
  CD44 Log2FC: 0.03189
  CDK6 Log2FC: -1.439
  CEBPB Log2FC: 0.5234
  CSF3R Log2FC: -1.197
  CTNNBIP1 Log2FC: 0.1531
  ELANE Log2FC: -2.561
  EP300 Log2FC: 0.4661
  FLI1 Log2FC: -0.175
  FUT4 Log2FC: -1.092
  GATA2 Log2FC: 2.602
  HCLS1 Log2FC: -0.435
  ITGA4 Log2FC: -1.164
  ITGAM Log2FC: 1.457
  ITGB1 Log2FC: 0.9913
  ITGB2 Log2FC: -0.1511
  JUN Log2FC: 1.4026
  MPO Log2FC: -2.925
  MYC Log2FC: -2.637
  NFE2 Log2FC: -0.1388
  PIR Log2FC: 0.9099
  RUNX1 Log2FC: 0.04441
  SOX4 Log2FC: 0.5561
  SPI1 Log2FC: -1.467
  TESC Log2FC: -0.171
  TRIB1 Log2FC: -0.1972
  ZBTB46 Log2FC: -0.02647
  ZFP36L1 Log2FC: 4.387
ML-2; [1]
  deregulated genes (RNA-seq): 2520
  down-regulated genes (RNA-seq): 1183
  up-regulated genes (RNA-seq): 1337
HL-60
  deregulated genes (RNA-seq): 3299
  down-regulated genes (RNA-seq): 1610
  up-regulated genes (RNA-seq): 1589
  ABI1 Log2FC: 0.03309
  CBFB Log2FC: -0.1665
  CCR2 Log2FC: 0.8564
  CD44 Log2FC: -0.4326
  CDK6 Log2FC: 0.05972
  CEBPB Log2FC: 0.4359
  CSF3R Log2FC: 0.06074
  CTNNBIP1 Log2FC: 1.186
  ELANE Log2FC: -1.7362
  EP300 Log2FC: -0.1778
  FLI1 Log2FC: -0.2831
  FUT4 Log2FC: -1.407
  GATA2 Log2FC: 0.09944
  HCLS1 Log2FC: -0.1237
  ITGA4 Log2FC: -1.197
  ITGAM Log2FC: 2.404
  ITGB1 Log2FC: 0.9626
  ITGB2 Log2FC: 0.07825
  JUN Log2FC: 0.9774
  MPO Log2FC: -2.297
  MYC Log2FC: -2.139
  NFE2 Log2FC: -0.3801
  PIR Log2FC: 1.629
  RUNX1 Log2FC: -0.01075
  SOX4 Log2FC: 0.2112
  SPI1 Log2FC: -0.6241
  TESC Log2FC: -0.09114
  TRIB1 Log2FC: -0.4986
  ZBTB46 Log2FC: 0.4368
  ZFP36L1 Log2FC: 1.334
HL-60; [2]
  deregulated genes (RNA-seq): 1278
  down-regulated genes (RNA-seq): 409
  up-regulated genes (RNA-seq): 869
